Laboratory results from patent US11472771B2, “Process for making amino diaryl ethers and amino diaryl ethers hydrochloride salts” (CELLESTIA BIOTECH AG, priority 2018, dated 2022).

What was measured:
Type in all cases: physicochemical
[1] = Solubility in water at various pH-values; settings: for calculated concentration charged: soluble
Experimental: The solubilities in water of 6-(4-(tert-butyl)phenoxy)pyridin-3-amine (formula (Ia)) and the monohydrochloride salt thereof, i.e. 6-(4-(tert-butyl)phenoxy)pyridin-3-amine monohydrochloride, were assessed at various pH-values according to Tables 3 and 4. The solubility in water of 6-(4-(tert-butyl)phenoxy)pyridin-3-amine (formula (Ia)) according to Table 3 was assayed as follows: Free base 500 mg were charged into 14 mL of acidic media at pH=2, 4, at neutral pH=7 and basic pH=10 to afford suspensions within calculated concentration of appr. 35 mg/mL. The solubility in water of 6-(4-(tert-butyl)phenoxy)pyridin-3-amine monohydrochloride according to Table 4 was assayed as follows: HCl salt 100 mg each were charged into acidic media at pH=2 and 4 and neutral media pH=7 to furnish solutions. Most important observation was to that at a neutral solution at pH=7 drops down to pH=1 by charging HCl salt 100 mg.

[2] = Stability study, storage 5° C.
Experimental: For 6-(4-(tert-butyl)phenoxy)pyridin-3-amine monohydrochloride two different types of stability studies were performed including short-term and long-term stability studies, respectively, […] In terms of analytical determinations six tests were involved including appearance, assay free base mean and purity mean, water, IR and XRPD. Appearance was determined by visual inspection. The product should be a white or off-white powder. Water content was determined according to USP <921> coulometric method. Identification of 6-(4-(tert-butyl)phenoxy)pyridin-3-amine monohydrochloride by IR spectroscopy was done according to USP <197>, comparing the spectrum obtained to that of the reference standard. X-Ray powder diffraction (XRPD) was performed according to USP <941> against the reference XRPD spectrum. Purity and assay of free base was done by HPLC-UV. Two methods were used. Mobile phases in the first method were water and acetonitrile. Mobile phases in the second method were water (0.5 mL of trifluoroacetic acid was added to 1000 mL of water) and acetonitrile (0.4 mL of trifluoroacetic acid was added to 1000 mL of acetonitrile). Equipment and chromatographic conditions for identification and determination of purity and assay of the 6-(4-(tert-butyl)phenoxy)pyridin-3-amine monohydrochloride by HPLC-UV according to the first method and the second method, respectively, are shown in Tables 5 and 6. [table] [table]

[3] = Stability study, storage −20° C.
Experimental: For 6-(4-(tert-butyl)phenoxy)pyridin-3-amine monohydrochloride two different types of stability studies were performed including short-term and long-term stability studies, respectively, at 25° C. (RH, 60%), −5° C. and −20° C. for 36 months and an accelerated study at 40° C. (RH, 75%) over 6 months. In terms of analytical determinations six tests were involved including appearance, assay free base mean and purity mean, water, IR and XRPD. Appearance was determined by visual inspection. The product should be a white or off-white powder. Water content was determined according to USP <921> coulometric method. Identification of 6-(4-(tert-butyl)phenoxy)pyridin-3-amine monohydrochloride by IR spectroscopy was done according to USP <197>, comparing the spectrum obtained to that of the reference standard. X-Ray powder diffraction (XRPD) was performed according to USP <941> against the reference XRPD spectrum. Purity and assay of free base was done by HPLC-UV. Two methods were used. Mobile phases in the first method were water and acetonitrile. Mobile phases in the second method were water (0.5 mL of trifluoroacetic acid was added to 1000 mL of water) and acetonitrile (0.4 mL of trifluoroacetic acid was added to 1000 mL of acetonitrile). Equipment and chromatographic conditions for identification and determination of purity and assay of the 6-(4-(tert-butyl)phenoxy)pyridin-3-amine monohydrochloride by HPLC-UV according to the first method and the second method, respectively, are shown in Tables 5 and 6. [table] [table]

[4] = 15% acetic acid soln., pH solvent 2, 100 mg in 0.6 ml
[5] = Fluka 33643 (pH = 4), 100 mg in 1.4 ml
[6] = Fluka 33646 (pH = 7), 100 mg in 1.0 ml
[7] = 6 months stability studies, 55° C., 3 mths
[8] = 6 months stability studies, 55° C., 6 mths
[9] = 6 months stability studies, 55° C., Release data
[10] = 36 months stability studies, 5° C., 6 mths
[11] = 36 months stability studies, 5° C., 9 mths
[12] = 36 months stability studies, 5° C., 12 mths
[13] = 36 months stability studies, 5° C., 18 mths
[14] = 36 months stability studies, 5° C., 24 mths
[15] = 6 months stability studies, 3 mths
[16] = 6 months stability studies, 6 mths
[17] = 6 months stability studies, Release data
[18] = 36 months stability studies, 6 mths
[19] = 36 months stability studies, 9 mths
[20] = 36 months stability studies, 12 mths
[21] = 36 months stability studies, 18 mths
[22] = 36 months stability studies, 24 mths

Q: For `CC(C)(C)c1ccc(Oc2ccc(N)cn2)cc1.Cl` [6-(4-(tert-butyl)phenoxy)pyridin-3-amine monohydrochloride], which pH solution [1, 4] is on record?
A: 0

Q: And the soluble ([1]; 15% acetic acid soln., pH solvent 2, 100 mg in 0.6 ml, conc. 166.66 mg/mL)?
A: yes

Q: And the calculated concentration charged [1, 4]?
A: 166.66 mg/mL

Q: What about the pH solution [1, 5] of the same molecule?
A: 1

Q: And the soluble ([1]; Fluka 33643 (pH = 4), 100 mg in 1.4 ml, conc. 71.43 mg/mL)?
A: yes

Q: What about the calculated concentration charged [1, 5] of the same molecule?
A: 71.43 mg/mL

Q: And the pH solution [1, 6]?
A: 1

Q: And the soluble ([1]; Fluka 33646 (pH = 7), 100 mg in 1.0 ml, conc. 100.00 mg/mL)?
A: yes

Q: What about the calculated concentration charged [1, 6] of the same molecule?
A: 100.00 mg/mL

Q: What about the solubility in water ([1]; water, in words) of the same molecule?
A: well-soluble

Q: What about the “Assay free base, mean” value [2, 7] of the same molecule?
A: 87.2 % m/m

Q: What about the “IR, conforms to reference” value [2, 7] of the same molecule?
A: complies

Q: And the “Purity, mean” value [2, 7]?
A: 99 % area

Q: What about the Water [2, 7] of the same molecule?
A: 0.02 % m/m

Q: What about the “Assay free base, mean” value [2, 8] of the same molecule?
A: 87.6 % m/m

Q: And the “IR, conforms to reference” value [2, 8]?
A: complies

Q: And the “Purity, mean” value [2, 8]?
A: 99 % area

Q: What about the Water [2, 8] of the same molecule?
A: 0.02 % m/m

Q: What about the “Assay free base, mean” value [2, 9] of the same molecule?
A: 89.4 % m/m

Q: What about the “IR, conforms to reference” value [2, 9] of the same molecule?
A: complies

Q: What about the “Purity, mean” value [2, 9] of the same molecule?
A: 100.0 % area

Q: And the Water [2, 9]?
A: 0.01 % m/m

Q: What about the Water ([2]; 36 months stability studies, 5° C., 3 mths) of the same molecule?
A: 0.02 % m/m

Q: What about the “Assay free base, mean” value [2, 10] of the same molecule?
A: 87.5 % m/m

Q: And the “Purity, mean” value [2, 10]?
A: 100.0 % area

Q: What about the Water [2, 10] of the same molecule?
A: 0.02 % m/m

Q: What about the “Assay free base, mean” value [2, 11] of the same molecule?
A: 89.6 % m/m

Q: And the “Purity, mean” value [2, 11]?
A: 100.0 % area

Q: And the Water [2, 11]?
A: 0.03 % m/m

Q: And the “Assay free base, mean” value [2, 12]?
A: 87.3 % m/m

Q: What about the “Purity, mean” value [2, 12] of the same molecule?
A: 100.0 % area

Q: And the Water [2, 12]?
A: 0.02 % m/m

Q: And the “Assay free base, mean” value [2, 13]?
A: 87.0 % m/m

Q: What about the “Purity, mean” value [2, 13] of the same molecule?
A: 100.0 % area

Q: What about the Water [2, 13] of the same molecule?
A: 0.01 % m/m

Q: And the “Assay free base, mean” value [2, 14]?
A: 88.3 % m/m

Q: What about the “Purity, mean” value [2, 14] of the same molecule?
A: 100.0 % area

Q: What about the Water [2, 14] of the same molecule?
A: 0.02 % m/m

Q: And the Water ([2]; 36 months stability studies, 5° C., Release data)?
A: 0.01 % m/m

Q: What about the “Assay free base, mean” value [3, 15] of the same molecule?
A: 86.1 % m/m

Q: And the “IR, conforms to reference” value [3, 15]?
A: complies

Q: What about the “Purity, mean” value [3, 15] of the same molecule?
A: 99 % area

Q: And the Water [3, 15]?
A: 0.02 % m/m

Q: What about the “Assay free base, mean” value [3, 16] of the same molecule?
A: 87.3 % m/m

Q: And the “IR, conforms to reference” value [3, 16]?
A: complies

Q: What about the “Purity, mean” value [3, 16] of the same molecule?
A: 99 % area

Q: And the Water [3, 16]?
A: 0.02 % m/m

Q: And the “Assay free base, mean” value [3, 17]?
A: 89.4 % m/m

Q: What about the “IR, conforms to reference” value [3, 17] of the same molecule?
A: complies

Q: And the “Purity, mean” value [3, 17]?
A: 100 % area

Q: And the Water [3, 17]?
A: 0.01 % m/m

Q: And the Water ([3]; 36 months stability studies, 3 mths)?
A: 0.02 % m/m

Q: And the “Assay free base, mean” value [3, 18]?
A: 87.4 % m/m

Q: And the “Purity, mean” value [3, 18]?
A: 100.0 % area

Q: What about the Water [3, 18] of the same molecule?
A: 0.02 % m/m

Q: What about the “Assay free base, mean” value [3, 19] of the same molecule?
A: 88.6 % m/m

Q: And the “Purity, mean” value [3, 19]?
A: 100.0 % area

Q: What about the Water [3, 19] of the same molecule?
A: 0.03 % m/m

Q: What about the “Assay free base, mean” value [3, 20] of the same molecule?
A: 87.5 % m/m

Q: What about the “Purity, mean” value [3, 20] of the same molecule?
A: 100.0 % area

Q: And the Water [3, 20]?
A: 0.02 % m/m

Q: And the “Assay free base, mean” value [3, 21]?
A: 87.4 % m/m

Q: What about the “Purity, mean” value [3, 21] of the same molecule?
A: 100.0 % area

Q: And the Water [3, 21]?
A: 0.01 % m/m

Q: And the “Assay free base, mean” value [3, 22]?
A: 87.4 % m/m

Q: And the “Purity, mean” value [3, 22]?
A: 100.0 % area

Q: And the Water [3, 22]?
A: 0.02 % m/m

Q: And the Water ([3]; 36 months stability studies, Release data)?
A: 0.01 % m/m
